From US20170022201A1, “MACROCYLIC PYRIDINE DERIVATIVES” (Janssen Pharmaceutica NV, priority 2014, published 2017)

Experiments:
EF2K = target: T1, EF2K (Homo sapiens, UniProt O00418); assay: Biochemical EF2K lysate-based kinase assay (AlphaLISA p-eEF2 Thr56); conditions: LN-229 cell lysates, 10 mM ATP, pH 6.6; pIC50 = -log IC50 (M); read-out: eEF2K_C_alphalisa pIC50 (converted)
T1 construct: host or cells: LN-229 glioblastoma cell lysate
T1 sequence (O00418 1-725): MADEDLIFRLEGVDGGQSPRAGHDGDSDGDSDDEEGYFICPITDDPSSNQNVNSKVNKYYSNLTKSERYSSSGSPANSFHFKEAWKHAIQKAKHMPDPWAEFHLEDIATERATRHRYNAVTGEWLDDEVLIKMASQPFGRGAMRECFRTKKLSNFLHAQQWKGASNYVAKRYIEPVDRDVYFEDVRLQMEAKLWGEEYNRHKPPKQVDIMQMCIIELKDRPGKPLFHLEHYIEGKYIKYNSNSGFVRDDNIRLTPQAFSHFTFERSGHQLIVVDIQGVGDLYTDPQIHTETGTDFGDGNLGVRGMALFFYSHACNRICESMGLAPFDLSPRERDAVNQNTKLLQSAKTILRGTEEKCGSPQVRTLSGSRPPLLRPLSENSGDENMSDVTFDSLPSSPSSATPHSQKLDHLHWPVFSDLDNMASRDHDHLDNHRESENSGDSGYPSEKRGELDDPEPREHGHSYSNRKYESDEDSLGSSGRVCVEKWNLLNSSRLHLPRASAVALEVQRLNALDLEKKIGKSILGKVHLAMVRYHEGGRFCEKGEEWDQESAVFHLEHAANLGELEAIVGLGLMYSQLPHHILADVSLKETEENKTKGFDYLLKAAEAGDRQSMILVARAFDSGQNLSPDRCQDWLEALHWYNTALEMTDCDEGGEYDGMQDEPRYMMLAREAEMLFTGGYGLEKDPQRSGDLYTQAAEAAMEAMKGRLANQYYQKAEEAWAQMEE
Description: LN-229 cells were purchased from ATCC (CRL-2611); these are glioblastoma cells. Cell lysates from LN229 were used in this kinase assay to provide both the kinase and the substrate (EF2). The AlphaLISA p-eEF2 (Thr56) detection assay was developed using a sandwich assay format with two specific antibodies recognizing different epitopes of the target, including one antibody against the phosphorylation site of interest. One anti-eEF2 antibody was conjugated onto AlphaLISA Acceptor beads, while the second antibody was biotinylated and captured by streptavidin coated Donor beads.
Compound was mixed with LN-229 cell lysates in the presence of a kinase buffer (e.g. HEPES) at a pH of 6.6, containing 10 mM Mg^2+ (e.g. magnesium acetate) and 10 mM adenosine-tri-phosphate (ATP) and incubated at room temperature for 15 minutes. The kinase reaction was stopped with excess ethylenediaminetetraacetic acid disodium salt and the biotinylated-anti phospho eEF2 antibody (3 nM) was added for 1 hour. Then the anti-EF2 acceptor beads (10 μg/ml) as well as the streptavidin coated donor beads (20 μg/ml) were added for 1 hour, and the AlphaLISA signal was measured in an Envision instrument once, left overnight, and measured again for the final read.

eEF2K = target: T2, eEF2K (Homo sapiens, UniProt O00418); assay: EF2K cell-based assay (P-EF2 AlphaLISA, 2-deoxyglucose stimulated MCF10A cells); conditions: 2.5 mM 2-deoxyglucose 4 h, phosphorylation of EF2 at Thr 56, pIC50 = -log IC50 (M); for IC50: read-out: eEF2K_C_PThr56 pIC50 (converted)
T2 construct: in the immortalized epithelial breast cell lines, MCF10A; host or cells: MCF10A immortalized breast epithelial cells
T2 sequence (O00418 1-725): T1 sequence (O00418 1-725)
Protocol: In this assay, 2.5 mM 2-deoxyglucose was used to deplete intracellular ATP and activate 5′ adenosine monophosphate-activated protein kinase (AMPK) in the immortalized epithelial breast cell lines, MCF10A. MCF 10A cells were purchased from ATCC (CRL-10317).
MCF10A cells are seeded at a density of 1.25×10^5 Cells/ml at 100 μl/well in a 96-well plate and incubated for 24 hours (37° C., 5% CO2). Compound is added for 1 hour, and cell are stimulated with 2.5 mM of 2-deoxy-glucose for 4 hours. Medium is then removed, and cells are lysed in an ice-cold buffer M-PER (Thermo Scientific, 78501), containing protease and phosphatase inhibitors. P-EF2 levels are determined in these lysates using the P-EF2 AlphaLISA described above.

PIK3C3 lipid kinase = PIK3C3 lipid kinase (Homo sapiens, UniProt Q8NEB9); assay: Biochemical Vps34 lipid kinase assay (ADP-Glo); conditions: 20 μM ATP; for IC50: serial dilution 10 μM to 0.3 nM, pIC50 = -log IC50 (M); for remaining activity at 1 µM: 1 h, read-out: VPS34_1microM_%ofcntrl
Chain of PIK3C3 lipid kinase (Q8NEB9 whole entry): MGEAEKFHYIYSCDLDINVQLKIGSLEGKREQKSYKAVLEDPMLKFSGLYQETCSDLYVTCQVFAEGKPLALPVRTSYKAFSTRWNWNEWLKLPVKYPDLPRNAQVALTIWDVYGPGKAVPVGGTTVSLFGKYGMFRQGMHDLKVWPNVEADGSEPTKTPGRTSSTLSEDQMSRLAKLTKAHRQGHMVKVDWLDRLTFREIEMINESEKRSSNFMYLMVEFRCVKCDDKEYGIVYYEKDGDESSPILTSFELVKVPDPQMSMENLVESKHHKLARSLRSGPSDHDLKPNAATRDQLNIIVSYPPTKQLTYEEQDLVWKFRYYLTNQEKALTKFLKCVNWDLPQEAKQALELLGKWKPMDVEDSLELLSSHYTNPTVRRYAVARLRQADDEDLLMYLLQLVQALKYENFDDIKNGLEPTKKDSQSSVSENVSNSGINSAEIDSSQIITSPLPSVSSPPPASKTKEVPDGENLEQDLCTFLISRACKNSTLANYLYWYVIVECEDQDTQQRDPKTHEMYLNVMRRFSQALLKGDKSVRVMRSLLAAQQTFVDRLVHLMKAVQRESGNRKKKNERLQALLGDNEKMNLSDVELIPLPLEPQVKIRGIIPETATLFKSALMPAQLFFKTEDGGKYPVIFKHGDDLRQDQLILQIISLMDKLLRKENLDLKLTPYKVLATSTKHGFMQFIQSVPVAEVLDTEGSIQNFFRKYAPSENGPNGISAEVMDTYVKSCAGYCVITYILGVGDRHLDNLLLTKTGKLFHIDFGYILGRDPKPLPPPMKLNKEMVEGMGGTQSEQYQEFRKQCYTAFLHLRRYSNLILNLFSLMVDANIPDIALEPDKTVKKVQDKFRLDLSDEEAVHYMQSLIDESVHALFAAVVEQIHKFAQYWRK
Protocol: A non-radiometric kinase assay (ADP-Glo™ Assay, Promega, Madison, Wi, USA) was used for measuring the kinase activity of the PIK3C3 lipid kinase. All kinase assays were performed in 96-well half-area microtiter plates in a 25 μl reaction volume. The reaction cocktail was pipetted in 3 steps in the following order: • 10 μl of ATP solution (in assay buffer, see below) • 5 μl of test sample in 5% DMSO 10 μl of enzyme/substrate mixture
All lipid kinase assays contained 50 mM HEPES (4-(2-hydroxyethyl)-1-piperazineethanesulfonic acid)—NaOH, pH 7.5, 1 mM EGTA ((ethylene glycol tetraacetic acid), 100 mM NaCl, 0.03% CHAPS (3-[(3-Cholamidopropyl) dimethylammonio]-1-propanesulfonate), 2 mM DTT (Dithiothreitol), 20 μM ATP (corresponding to the apparent ATP-Km), kinase (7.6 nM) and substrate (50 μM). The assay for PIK3C3 additionally contained 3 mM MnCl2.
The reaction cocktails were incubated at 30° C. for 60 minutes. The reaction was stopped with 25 μl ADP-Glo™ reagent per well. Plates were incubated for 40 minutes at room temperature, followed by addition of 50 μl kinase detection reagent per well and incubation for 60 minutes at room temperature. Signal was determined with a microplate luminescence reader (Victor, Perkin Elmer). The assay was either performed using a single dose of compound (1 μM final concentration in the assay reaction) with resulting data expressed as residual activity compared to control (DMSO), or using a serial (half-log) dilution of compounds starting at 10 μM and down to 0.3 nM (final concentrations in the assay) with data expressed as the pIC50.

[1] = single dose 1 μM, residual activity compared to control (DMSO)

IC50 (EF2K) [M]	IC50 (eEF2K) [M]	IC50 (PIK3C3 lipid kinase) [M]	remaining activity at 1 µM (PIK3C3 lipid kinase; [1]) [%]	eEF2K_C_PThr56 pIC50 (eEF2K)	VPS34_1microM_%ofcntrl (PIK3C3 lipid kinase; [1]) [%]	SMILES
4.79e-08	~2.51e-06	5.5e-07				O=C1NCCCNc2ncc(cn2)-c2ccnc(c2)Nc2cccc(c2)CN2CCN(CC2)C1CO (single isomer, unassigned) [Compound 2]
5.13e-06	> 1e-05	2.63e-06				NC(=O)C1CCNC(=O)CN2CCN(CC2)Cc2cccc(c2)Nc2cc(ccn2)-c2cnc(nc2)N1 (stereo not shown) [Compound 121]
2.45e-08	8.71e-06	1.55e-06				O=C1CN2CCN(Cc3cccc(c3)Nc3cc(ccn3)-c3cnc(nc3)N3CCCC3CCN1)C(CO)C2 (stereo not shown) [Compound 44]
6.17e-08	2.51e-06		56.2			O=C1CN2CCN(CC2)Cc2cccc(c2)Nc2cc(ccn2)-c2cnc(nc2)CN(C(=O)C2CC2)CCN1 [Compound 131]
1.1e-08	7.94e-07	9.77e-06				O=C1CN2CCN(CC2)Cc2cccc(c2)Nc2cc(ccn2)-c2cnc(nc2)N2CC(O)CC2CCN1 (stereo not shown) [Compound 54]
1.05e-07	1.7e-06	7.41e-07	23.3			O=C1CN2CC3CCC(C2)N3Cc2cccc(c2)Nc2cc(ccn2)-c2cnc(nc2)NCCCN1 [Compound 41]
3.8e-06	8.51e-06		46.4			O=C1CN2CCC(CC2)Cc2cccc(c2)Nc2cc(ccn2)-c2ccc(nc2)NCCCN1 [Compound 140]
3.31e-07	~2.63e-06	3.63e-07	23.5			CC1CN2CC(=O)NCCCNc3ncc(cn3)-c3ccnc(c3)Nc3cccc(c3)CN1C(C)C2 (stereo not shown) [Compound 34]
~2.45e-05	> 3.02e-05		84.5			O=C1CN2CCN(CC2)Cc2cccc(c2)Nc2cc(ccn2)-c2ccc(nn2)NCCCN1 [Compound 37]
9.77e-08	~2.29e-06	7.08e-07				O=C1CN2C3CCC2CN(Cc2cccc(c2)Nc2cc(ccn2)-c2cnc(nc2)NCCCN1)C3 [Compound 42]

Further lines, the molecule ahead of its results:

SMILES	IC50 (EF2K) [M]	IC50 (eEF2K) [M]	IC50 (PIK3C3 lipid kinase) [M]	remaining activity at 1 µM (PIK3C3 lipid kinase; [1]) [%]	eEF2K_C_PThr56 pIC50 (eEF2K)	VPS34_1microM_%ofcntrl (PIK3C3 lipid kinase; [1]) [%]
CC1c2cccc(c2)Nc2cc(ccn2)-c2cnc(nc2)N2CC(O)CC2CCNC(=O)C2(CC2)N2CCN1CC2 (single isomer, unassigned) [Compound 66]	6.17e-08	9.12e-07	1.12e-06			
O=C1CN2CCN(CC2)Cc2cccc(c2)Nc2cc(ccn2)-c2ccc(nc2)CN(CC2CC2)CCN1 [Compound 146]	3.89e-08	6.61e-07		54.6		
CN1CCN(CCCO)c2ncc(cn2)-c2ccnc(c2)Nc2cccc(c2)CN2CCN(CC2)CC1=O [Compound 17]	> 3.02e-05	> 3.02e-05		62.4		
O=C1NCCCNc2ncc(cn2)-c2ccnc(c2)Nc2cccc(c2)CN2CCN(CC2)C1CO (single isomer, unassigned) [Compound 3]	1.55e-07	5.75e-06	2.29e-07	15.3		
O=C1CN2CC3CCC2CN3Cc2cccc(c2)Nc2cc(ccn2)-c2cnc(nc2)NCCCN1 (single isomer, unassigned) [Compound 26]	1.07e-06		6.61e-08	4.67	<5	
CC1(C)c2cccc(c2)Nc2cc(ccn2)-c2cnc(nc2)NCCCNC(=O)CN2CCN1CC2 [Compound 74]	1.2e-07	1.51e-06		70.1		
CC1c2cccc(c2)Nc2cc(ccn2)-c2cnc(nc2)N2CC(O)CC2CCNC(=O)C2(CC2)N2CCN1CC2 (single isomer, unassigned) [Compound 65]	5.62e-09	3.8e-07	1.95e-07			
O=C1CN2CCN(CC2)Cc2cccc(c2)Nc2cc(ccn2)-c2ccc(nc2)NCCCN1 [Compound 67]	~3.55e-07	3.98e-06		34		
CC1CN2Cc3cccc(c3)Nc3cc(ccn3)-c3cnc(nc3)NCCCNC(=O)CN1CC2C (stereo not shown) [Compound 35]	6.46e-08	2.45e-07	2.95e-07	20.9		
CN1CCCNC(=O)CN2CCN(CC2)Cc2cccc(c2)Nc2cc(ccn2)-c2ccc1nc2 [Compound 72]	2.88e-07	5.89e-06		50.8		
COC(=O)C1CCNC(=O)CN2CCN(CC2)Cc2cccc(c2)Nc2cc(ccn2)-c2cnc(nc2)N1 (single isomer, unassigned) [Compound 118]	3.09e-07	1.55e-05		70.6		
O=C1NCCCNc2ncc(cn2)-c2ccnc(c2)Nc2cccc(c2)CN2CCN(CC2)C12COC2 [Compound 10]	2.19e-08	1.48e-06	4.57e-07	18.6		
COCC1C(=O)NCCCNc2ncc(cn2)-c2ccnc(c2)Nc2cccc(c2)CN2CCN1CC2 (single isomer, unassigned) [Compound 6]	4.47e-08	1.12e-06	7.59e-07			
CC1CN2CCN1Cc1cccc(c1)Nc1cc(ccn1)-c1cnc(nc1)N1CC(O)CC1CCNC(=O)C2 (stereo not shown) [Compound 61]	1.26e-08	4.27e-07				80.70
COCC1C(=O)NCCCNc2ncc(cn2)-c2ccnc(c2)Nc2cccc(c2)CN2CCN1CC2 (single isomer, unassigned) [Compound 5]	1.12e-07	2.51e-06	4.47e-07	22.4		
O=C1CN2CCC(CC2)Oc2cccc(c2)Nc2cc(ccn2)-c2cnc(nc2)NCCCN1 [Compound 90]	1.91e-08	5.25e-07	6.17e-08			
O=C1CC2CCNC(=O)CN3CCN(CC3)Cc3cccc(c3)Nc3cc(ccn3)-c3cnc(nc3)N2C1 (stereo not shown) [Compound 88]	6.46e-08	4.57e-07		66.5		
CN1CCCN(C)c2ccc(cn2)-c2ccnc(c2)Nc2cccc(c2)CN2CCN(CC2)CC1=O [Compound 68]	5.13e-07	> 3.02e-05	4.68e-06			
